Experimental data as given in paper PMC12638379, “An innovative approach to development of new pyrazolylquinolin-2-one hybrids as dual EGFR and BRAF^V600E inhibitors” (Molecular Diversity, 2025).
Like-named read-outs stand apart in the source and are kept apart here.

Legend:
[1] = test system: NCI 60 cancer cell lines; assay: NCI anticancer screening over a panel of 60 cancer cells, single concentration 10 µM; type: cell-based, human; conditions: Homo sapiens, read-out: % Growth Inhibition (GI %)
Summary of the method: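 Primary single-dose screen at 10 µM over the NCI panel of 60 human tumour cell lines (leukemia, CNS, lung, colon, kidney, ovary, breast, prostate). The standard NCI Developmental Therapeutics Program protocol was used.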

[2] = test system: breast cancer (T47D) cell line; assay: MTT antiproliferative assay, T-47D
Summary of the method: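 HOP-92, MOLT-4 and T-47D cells in DMEM/10% FBS/insulin exposed 24 h to serial 10-fold dilutions […]; MTT added 2–4 h, absorbance at 570 nm with 690 nm background subtraction. Percent viable cells gives IC50; GI50 is the average IC50 across the three lines.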

[3] = test system: leukemia (MOLT-4) cell line; assay: MTT antiproliferative assay, MOLT-4; type: cell-based, human
Experimental: After 24 h of culture incubation and supernatants discarded.

[4] = molecular target: T1, EGFR (Homo sapiens, UniProt P00533); assay: EGFR inhibitory assay; type: biochemical; conditions: for %inh: EGFR, unit not given
T1 construct: EGFR cytoplasmic domain (EGFR-CD, amino acids 645–1186); His6 (N); made in house; host or cells: Sf-9 insect cells (baculovirus)

[5] = molecular target: BRAF^V600E (Homo sapiens, UniProt P15056, V600E); assay: BRAF^V600E inhibitory assay (B-Raf (V600E) Kinase Assay); type: biochemical; conditions: read-out: BRAF^V600E inhibition IC50 ± SEM
[6] = MTT cytotoxicity on normal cell line WI-38; conditions: human, WI-38 normal cells, % viability
[7] = test system: normal cell line WI-38; assay: MTT cytotoxicity on normal cell line WI-38

T1 sequence (P00533 669-1210): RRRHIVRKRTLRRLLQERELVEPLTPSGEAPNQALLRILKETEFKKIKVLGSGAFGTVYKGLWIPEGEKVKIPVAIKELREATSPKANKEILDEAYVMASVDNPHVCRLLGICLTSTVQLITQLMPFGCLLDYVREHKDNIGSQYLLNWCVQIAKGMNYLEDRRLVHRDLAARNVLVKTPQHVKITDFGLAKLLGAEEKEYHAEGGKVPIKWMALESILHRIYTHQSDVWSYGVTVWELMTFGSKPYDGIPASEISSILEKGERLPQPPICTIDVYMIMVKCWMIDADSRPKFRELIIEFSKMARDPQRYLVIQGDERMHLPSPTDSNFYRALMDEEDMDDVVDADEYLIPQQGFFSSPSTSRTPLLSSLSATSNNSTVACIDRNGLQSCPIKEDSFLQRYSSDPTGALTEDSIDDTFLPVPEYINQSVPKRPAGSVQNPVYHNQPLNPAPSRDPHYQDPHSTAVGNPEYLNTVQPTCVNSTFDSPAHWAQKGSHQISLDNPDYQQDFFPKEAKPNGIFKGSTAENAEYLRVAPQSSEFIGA
BRAF^V600E, sequence (P15056 whole entry V600E): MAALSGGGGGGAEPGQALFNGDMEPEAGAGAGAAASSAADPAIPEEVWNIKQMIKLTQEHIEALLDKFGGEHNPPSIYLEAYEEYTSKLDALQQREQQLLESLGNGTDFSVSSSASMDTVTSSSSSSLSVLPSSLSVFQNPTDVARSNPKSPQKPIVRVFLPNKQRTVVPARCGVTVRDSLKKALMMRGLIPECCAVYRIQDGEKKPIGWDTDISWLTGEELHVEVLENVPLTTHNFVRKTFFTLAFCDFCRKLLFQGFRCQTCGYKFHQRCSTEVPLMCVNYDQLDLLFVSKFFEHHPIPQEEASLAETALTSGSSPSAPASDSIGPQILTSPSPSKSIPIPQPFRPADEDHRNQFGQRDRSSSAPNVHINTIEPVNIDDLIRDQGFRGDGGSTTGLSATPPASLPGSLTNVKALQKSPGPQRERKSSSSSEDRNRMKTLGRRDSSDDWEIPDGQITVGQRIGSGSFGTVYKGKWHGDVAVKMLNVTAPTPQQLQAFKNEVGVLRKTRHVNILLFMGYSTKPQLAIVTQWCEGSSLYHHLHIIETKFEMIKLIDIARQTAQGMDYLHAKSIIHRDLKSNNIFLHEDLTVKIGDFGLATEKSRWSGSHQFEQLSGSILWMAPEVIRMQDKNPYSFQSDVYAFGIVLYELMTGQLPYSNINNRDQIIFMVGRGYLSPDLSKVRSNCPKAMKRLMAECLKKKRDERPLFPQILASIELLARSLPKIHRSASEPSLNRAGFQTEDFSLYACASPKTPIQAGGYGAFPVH

C/C(=N\Nc1ccc(C(=O)O)cc1)c1cnn(-c2cc(=O)[nH]c3ccccc23)c1C [Compound 4f, (E)-4-(2-(1-(5-methyl-1-(2-oxo-1,2-dihydroquinolin-4-yl)-1H-pyrazol-4-yl)ethylidene) hydrazineyl)benzoic acid]
inhibition at 10 µM ([1]; 786-0, Renal cancer 786-0, 10 μM): < 5%
inhibition at 10 µM ([1]; A498, Renal cancer A498, 10 μM): < 5%
inhibition at 10 µM ([1]; A549, Non-small cell lung cancer A549/ATCC, 10 μM): < 5%
inhibition at 10 µM ([1]; ACHN, Renal cancer ACHN, 10 μM): 5.83%
inhibition at 10 µM ([1]; BT-549, Breast cancer BT-549, 10 μM): < 5%
inhibition at 10 µM ([1]; CAKI-1, Renal cancer CAKI-1, 10 μM): 16.1%
inhibition at 10 µM ([1]; CCRF-CEM, Leukemia CCRF-CEM, 10 μM): < 5%
inhibition at 10 µM ([1]; COLO 205, Colon cancer COLO 205, 10 μM): < 5%
inhibition at 10 µM ([1]; DU-145, Prostate cancer DU-145, 10 μM): < 5%
inhibition at 10 µM ([1]; EKVX, Non-small cell lung cancer EKVX, 10 μM): < 5%
inhibition at 10 µM ([1]; HCC 2998, Colon cancer HCC-2998, 10 μM): < 5%
inhibition at 10 µM ([1]; HCT-15, Colon cancer HCT-15, 10 μM): < 5%
inhibition at 10 µM ([1]; HCT-116, Colon cancer HCT-116, 10 μM): < 5%
inhibition at 10 µM ([1]; HL-60, Leukemia HL-60(TB), 10 μM): < 5%
inhibition at 10 µM ([1]; HOP-62, Non-small cell lung cancer HOP-62, 10 μM): 8.55%
inhibition at 10 µM ([1]; HOP-92, Non-small cell lung cancer HOP-92, 10 μM): 79.8%
inhibition at 10 µM ([1]; HT-29, Colon cancer HT29, 10 μM): < 5%
inhibition at 10 µM ([1]; Hs-578T, Breast cancer HS 578T, 10 μM): 12.3%
inhibition at 10 µM ([1]; IGROV-1, Ovarian cancer IGROV1, 10 μM): < 5%
inhibition at 10 µM ([1]; K562, Leukemia K-562, 10 μM): < 5%
inhibition at 10 µM ([1]; KM12, Colon cancer KM12, 10 μM): < 5%
inhibition at 10 µM ([1]; LOX IMVI, Melanoma LOX IMVI, 10 μM): 10.8%
inhibition at 10 µM ([1]; Leukemia SR, 10 μM): 12.2%
inhibition at 10 µM ([1]; MCF7, Breast cancer MCF7, 10 μM): 5.99%
inhibition at 10 µM ([1]; MDA-MB-231, Breast cancer MDA-MB-231/ATCC, 10 μM): 12.5%
inhibition at 10 µM ([1]; MDA-MB-435, Melanoma MDA-MB-435, 10 μM): < 5%
inhibition at 10 µM ([1]; MDA-MB-468, Breast cancer MDA-MB-468, 10 μM): < 5%
inhibition at 10 µM ([1]; MOLT-4, Leukemia MOLT-4, 10 μM): < 5%
inhibition at 10 µM ([1]; Melanoma M14, 10 μM): 8.95%
inhibition at 10 µM ([1]; Melanoma MALM-3M, 10 μM): 9.22%
inhibition at 10 µM ([1]; NCI-H23, Non-small cell lung cancer NCI-H23, 10 μM): 7.19%
inhibition at 10 µM ([1]; NCI-H226, Non-small cell lung cancer NCI-H226, 10 μM): 10.9%
inhibition at 10 µM ([1]; NCI-H322M, Non-small cell lung cancer NCI-H322M, 10 μM): < 5%
inhibition at 10 µM ([1]; NCI-H460, Non-small cell lung cancer NCI-H460, 10 μM): < 5%
inhibition at 10 µM ([1]; NCI-H522, Non-small cell lung cancer NCI-H522, 10 μM): 13.9%
inhibition at 10 µM ([1]; NCI/ADR-RES, Ovarian cancer NCI/ADR-RES, 10 μM): < 5%
inhibition at 10 µM ([1]; OVCAR-3, Ovarian cancer OVCAR-3, 10 μM): < 5%
inhibition at 10 µM ([1]; OVCAR-4, Ovarian cancer OVCAR-4, 10 μM): 7.33%
inhibition at 10 µM ([1]; OVCAR-5, Ovarian cancer OVCAR-5, 10 μM): < 5%
inhibition at 10 µM ([1]; OVCAR-8, Ovarian cancer OVCAR-8, 10 μM): < 5%
inhibition at 10 µM ([1]; Prostate cancer PC-3, 10 μM): 12.4%
inhibition at 10 µM ([1]; RPMI-8226, Leukemia RPMI-8226, 10 μM): < 5%
inhibition at 10 µM ([1]; RXF 393, Renal cancer RXF 393, 10 μM): 11.1%
inhibition at 10 µM ([1]; SF-268, CNS Cancer SF-268, 10 μM): < 5%
inhibition at 10 µM ([1]; SF-295, CNS Cancer SF-295, 10 μM): < 5%
inhibition at 10 µM ([1]; SF-539, CNS Cancer SF-539, 10 μM): < 5%
inhibition at 10 µM ([1]; SK-MEL-2, Melanoma SK-MEL-2, 10 μM): < 5%
inhibition at 10 µM ([1]; SK-MEL-5, Melanoma SK-MEL-5, 10 μM): < 5%
inhibition at 10 µM ([1]; SK-MEL-28, Melanoma SK-MEL-28, 10 μM): < 5%
inhibition at 10 µM ([1]; SK-OV-3, Ovarian cancer SK-OV-3, 10 μM): < 5%
inhibition at 10 µM ([1]; SN12C, Renal cancer SN12C, 10 μM): < 5%
inhibition at 10 µM ([1]; SNB-19, CNS Cancer SNB-19, 10 μM): < 5%
inhibition at 10 µM ([1]; SNB-75, CNS Cancer SNB-75, 10 μM): 12.9%
inhibition at 10 µM ([1]; SW-620, Colon cancer SW-620, 10 μM): < 5%
inhibition at 10 µM ([1]; T47D, Breast cancer T-47D, 10 μM): < 5%
inhibition at 10 µM ([1]; TK-10, Renal cancer TK-10, 10 μM): < 5%
inhibition at 10 µM ([1]; U-251, CNS Cancer U251, 10 μM): < 5%
inhibition at 10 µM ([1]; UACC-62, Melanoma UACC-62, 10 μM): 6.43%
inhibition at 10 µM ([1]; UACC-257, Melanoma UACC-257, 10 μM): < 5%
inhibition at 10 µM ([1]; UO-31, Renal cancer UO-31, 10 μM): 45.2%
viability at 0.4 µM ([2]; Homo sapiens, T47D, T-47D, MTT, 0.4uM): 78.6%
viability at 1.6 µM ([2]; Homo sapiens, T47D, T-47D, MTT, 1.6uM): 72.1%
viability at 6.3 µM ([2]; Homo sapiens, T47D, T-47D, MTT, 6.3uM): 61.4%
viability at 25 µM ([2]; Homo sapiens, T47D, T-47D, MTT, 25uM): 50.1%
viability at 100 µM ([2]; Homo sapiens, T47D, T-47D, MTT, 100uM): 41.1%
IC50 ([2]; Homo sapiens, T47D, read-out: Antiproliferative activity IC50 ± SEM, T-47D, MTT): 28.6 ± 0.99 µM
% viability ([2]; T-47D, MTT, 1.6uM, listed as ws6, 1.6 µM): 72.1271%
% viability ([2]; T-47D, MTT, 6.3uM, listed as ws6, 6.3 µM): 61.3692%
% viability ([2]; T-47D, MTT, 100uM, listed as ws6, 100 µM): 41.0758%
viability at 0.4 µM ([3]; Homo sapiens, MOLT-4, MOLT-4, MTT, 0.4uM): 70.3%
viability at 1.6 µM ([3]; Homo sapiens, MOLT-4, MOLT-4, MTT, 1.6uM): 59.6%
viability at 6.3 µM ([3]; Homo sapiens, MOLT-4, MOLT-4, MTT, 6.3uM): 58.5%
viability at 25 µM ([3]; Homo sapiens, MOLT-4, MOLT-4, MTT, 25uM): 48.1%
viability at 100 µM ([3]; Homo sapiens, MOLT-4, MOLT-4, MTT, 100uM): 39.1%
IC50 ([3]; Homo sapiens, MOLT-4, MTT, read-out: Antiproliferative activity IC50 ± SEM, MOLT-4): 16.3 ± 0.65 µM
% viability ([3]; MOLT-4, MTT, 0.4uM, listed as ws6, 0.4 µM): 70.3059%
% viability ([3]; MOLT-4, MTT, 1.6uM, listed as ws6, 1.6 µM): 59.5561%
% viability ([3]; MOLT-4, MTT, 6.3uM, listed as ws6, 6.3 µM): 58.5483%
% viability ([3]; MOLT-4, MTT, 100uM, listed as ws6, 100 µM): 39.1122%
%inh ([4]; conc 0.01 (log -2)): 10.6%
%inh ([4]; conc 0.1 (log -1)): 26%
%inh ([4]; conc 1 (log 0)): 61.8%
%inh ([4]; conc 10 (log 1)): 80.6%
%inh ([4]; conc 100 (log 2)): 92.1%
IC50 ([4]; read-out: EGFR inhibition IC50 ± SEM): 0.64 ± 0.023 µM
IC50 [5]: 0.41 ± 0.016 µM
viability at 24 h, 0.4 µM ([6]; WI38, 0.4uM (log conc. -0.41)): 80%
viability at 24 h, 1.6 µM ([6]; WI38, 1.6uM (log conc. 0.19)): 74.5%
viability at 24 h, 6.3 µM ([6]; WI38, 6.3uM (log conc. 0.8)): 65.4%
viability at 24 h, 25 µM ([6]; WI38, 25uM (log conc. 1.4)): 54.9%
viability at 24 h, 100 µM ([6]; WI38, 100uM (log conc. 2)): 41.6%
IC50 ([7]; Homo sapiens, read-out: Antiproliferative activity IC50 ± SEM): 42.1 ± 1.68 µM
% viability ([7]; WI38, 0.4uM (log conc. -0.41), listed as ws6, 0.4 µM): 79.9762%
% viability ([7]; WI38, 1.6uM (log conc. 0.19), listed as ws6, 1.6 µM): 74.5098%
% viability ([7]; WI38, 6.3uM (log conc. 0.8), listed as ws6, 6.3 µM): 65.3595%
% viability ([7]; WI38, 100uM (log conc. 2), listed as ws6, 100 µM): 41.5924%
